Paper PMC5779083 (Cellular signalling, 2017)
pEC50: −log10 of the molar value. Where “and” joins values, the source holds several entries; their conditions need not be identical. Equal entries are not always repeated.

Legend:
C57BL/6 mice [1] = test: Warm-water tail-withdrawal assay; format: in vivo; settings: for analgesic response (increase in tail withdrawal latency): 30 min post-injection, wild type C57BL/6; for change in tail withdrawal latency after norBNI pretreatment: norBNI 10 mg/kg 3–5 days prior
hKOR [2] = biological target: T1, hKOR (Homo sapiens, UniProt P41145); settings: hKOR-expressing HEK293 cells; cited from earlier work
T1 sequence (P41145 whole entry): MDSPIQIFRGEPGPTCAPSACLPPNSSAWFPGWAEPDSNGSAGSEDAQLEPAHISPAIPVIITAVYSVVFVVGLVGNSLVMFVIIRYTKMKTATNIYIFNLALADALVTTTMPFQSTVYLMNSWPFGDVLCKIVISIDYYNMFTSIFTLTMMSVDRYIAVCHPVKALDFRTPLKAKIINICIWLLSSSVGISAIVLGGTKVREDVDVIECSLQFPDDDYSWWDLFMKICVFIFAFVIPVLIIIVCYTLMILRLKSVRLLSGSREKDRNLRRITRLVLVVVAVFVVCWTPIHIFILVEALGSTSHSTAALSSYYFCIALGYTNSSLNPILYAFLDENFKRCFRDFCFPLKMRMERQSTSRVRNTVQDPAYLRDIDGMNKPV

rKOR [3] = biological target: T2, rKOR (Rattus norvegicus, UniProt P34975); settings: rKOR expressing HEK293; cited from earlier work
T2 sequence (P34975 whole entry): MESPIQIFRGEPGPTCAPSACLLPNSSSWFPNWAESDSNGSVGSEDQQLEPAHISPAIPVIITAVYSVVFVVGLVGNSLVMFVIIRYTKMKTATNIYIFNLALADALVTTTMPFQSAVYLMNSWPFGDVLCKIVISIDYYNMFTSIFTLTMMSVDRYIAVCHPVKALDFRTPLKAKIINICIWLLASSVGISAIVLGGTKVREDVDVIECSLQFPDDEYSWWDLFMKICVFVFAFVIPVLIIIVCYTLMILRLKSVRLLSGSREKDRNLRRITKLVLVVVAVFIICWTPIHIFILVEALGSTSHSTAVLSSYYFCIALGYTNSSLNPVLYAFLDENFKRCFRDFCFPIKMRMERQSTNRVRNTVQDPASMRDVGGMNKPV

rKOR [4] = biological target: T2, rKOR; test: Signaling bias, ERK1/2; format: cell-based, rodent; settings: ERK1/2 vs p38 phosphorylation, U50,488 as reference
hKOR [5] = biological target: T1, hKOR; test: Signaling bias, ERK1/2; format: cell-based; settings: ERK1/2 vs p38 phosphorylation, U50,488 as reference
C57BL/6 mice [6] = test: 5′-GNTI-induced scratching; format: in vivo; settings: for number of scratches induced: 30 μg/kg s.c.
C57BL/6 mice [7] = test: Locomotor activity; settings: 50 μg/kg, n=3; no impairment vs saline (p=0.73)
[8] = tested on: untransfected HEK293 cells; test: ERK1/2 and p38 phosphorylation in untransfected HEK293 cells; format: cell-based; settings: untransfected HEK293, 1 μM, 5 min (pERK) or 30 min (pp38), n=3
rMOR = rMOR (Rattus norvegicus, UniProt P33535); test: ERK1/2 phosphorylation; format: cell-based
Chain of rMOR (P33535 whole entry): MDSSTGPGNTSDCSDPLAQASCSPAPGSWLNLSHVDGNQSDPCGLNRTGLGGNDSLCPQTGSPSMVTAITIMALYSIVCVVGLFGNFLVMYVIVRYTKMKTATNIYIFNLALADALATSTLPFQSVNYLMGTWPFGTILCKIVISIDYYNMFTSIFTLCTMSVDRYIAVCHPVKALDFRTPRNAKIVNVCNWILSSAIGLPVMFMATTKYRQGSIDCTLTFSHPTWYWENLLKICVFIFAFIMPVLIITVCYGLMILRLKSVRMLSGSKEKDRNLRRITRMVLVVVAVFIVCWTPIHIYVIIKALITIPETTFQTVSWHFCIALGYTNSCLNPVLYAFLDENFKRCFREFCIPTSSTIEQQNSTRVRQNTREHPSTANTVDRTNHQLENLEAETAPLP

C57BL/6 mice [9] = test: Acute cross-tolerance to U50,488 in warm-water tail-withdrawal assay; format: in vivo; settings: 1 mg/kg i.p. pretreatment

Compound: Oc1ccc2c3c1O[C@H]1c4[nH]c5c(c4C[C@@]4(O)[C@@H](C2)N(CC2CC2)CC[C@]314)C[C@@]1(O)[C@H]2Cc3ccc(O)c4c3[C@@]1(CCN2CC1CC1)[C@H]5O4 [norBNI, norbinaltorphimine]
- effect on U50,488-mediated increase in withdrawal latency (C57BL/6 mice [1]; norBNI 10 mg/kg 3–5 days prior to U50,488, p < 0.01): blocked
- effect on nalfurafine-mediated increase in withdrawal latency (C57BL/6 mice [1]; norBNI 10 mg/kg 3–5 days prior to nalfurafine, p < 0.05): blocked

Compound: Oc1ccc2c(c1)[C@@]13CCCC[C@@]1(O)[C@@H](C2)N(CC1CCC1)CC3 [Butorphanol]
- signaling bias (in words) (hKOR [2]): p38-biased
- signaling bias (in words) (rKOR [3]): G protein biased

Compound: CC(C)=CCN1CCC2(C)c3cc(O)ccc3CC1C2C (stereo not shown) [Pentazocine]
- signaling bias (in words) (hKOR [2]): p38-biased
- signaling bias (in words) (rKOR [3]): unbiased
- Bias factor (rKOR [4]): 1.4
- ΔΔlog(RA) Mean (SEM) (rKOR [4]): 0.14 (0.79)
- Bias factor (hKOR [5]): 0.62
- ΔΔlog(RA) Mean (SEM) (hKOR [5]): −0.20 (0.78)

Compound: NC(N)=Nc1ccc2[nH]c3c(c2c1)C[C@@]1(O)[C@H]2Cc4ccc(O)c5c4[C@@]1(CCN2CC1CC1)[C@H]3O5 [5′-GNTI]
- number of scratches induced (C57BL/6 mice [6]; KOR−/− mice, n=8): 550 ± 84 times in 30 min
- number of scratches induced (C57BL/6 mice [6]; wild type mice, n=10): 566 ± 60 times in 30 min

Compound: CN(C(=O)/C=C/c1ccoc1)[C@@H]1CC[C@@]2(O)[C@H]3Cc4ccc(O)c5c4[C@@]2(CCN3CC2CC2)[C@H]1O5 [Nalfurafine, (2E)-N-[(5α,6β)-17-(cyclopropylmethyl)-3,14-dihydroxy-4,5-epoxymorphinan-6-yl]-3-(3-furyl)-N methylacrylamide]
- analgesic response (increase in tail withdrawal latency) (C57BL/6 mice [1]; 50 μg/kg i.p.): 1.5 ± 0.7 s
- change in tail withdrawal latency after norBNI pretreatment (C57BL/6 mice [1]; 50 μg/kg): 0.6 ± 0.1 s
- analgesic response (increase in tail withdrawal latency) (C57BL/6 mice [1]; 150 μg/kg i.p.): 1.7 ± 0.4 s
- change in tail withdrawal latency after norBNI pretreatment (C57BL/6 mice [1]; 150 μg/kg): 0.7 ± 0.2 s
- general locomotor activity, distance moved over 30 min (C57BL/6 mice [7]): 3531 ± 1215 cm
- increase in ERK1/2 or p38 phosphorylation [8]: No significant increase
- 5′-GNTI-induced scratching after pretreatment (C57BL/6 mice [6]; 20 μg/kg s.c. 20 min prior to 5′-GNTI, wild type C57BL/6, n=10, not significant): 556 ± 67 scratches in 30 min
- 5′-GNTI-induced scratching after pretreatment (C57BL/6 mice [6]; 50 μg/kg s.c. 20 min prior to 5′-GNTI 30 μg/kg, KOR−/− mice, n=8, not significant): 580 ± 16 times in 30 min
- 5′-GNTI-induced scratching after pretreatment (C57BL/6 mice [6]; 50 μg/kg s.c. 20 min prior to 5′-GNTI 30 μg/kg, MOR−/− mice, n=8): 99 ± 40 times in 30 min
- 5′-GNTI-induced scratching after pretreatment (C57BL/6 mice [6]; 50 μg/kg s.c. 20 min prior to 5′-GNTI 30 μg/kg, wild type, n=9): 241±33 times in 30 min
- pEC50 (rMOR): 8.10
- cross-tolerance: effect of pretreatment on U50,488-induced analgesia (C57BL/6 mice [9]; 3 h before U50,488 15 mg/kg i.p.): significantly decreased U50,488-induced analgesia
- cross-tolerance: effect of pretreatment on U50,488-induced analgesia (C57BL/6 mice [9]; 24 h before U50,488 15 mg/kg i.p.): lack of residual analgesic tolerance
- Bias factor (rKOR [4]): 7 and 7.2
- ΔΔlog(RA) Mean (SEM) (rKOR [4]): 1.15 (0.74)
- ΔΔlog(RA) Mean (SEM) (hKOR [5]): 3.2 (1.02)
